{"source": "ChEMBL document CHEMBL1125968", "about": "“5-HT2 antagonist activity of 3-aminomethyltetralones” (Bioorg Med Chem Lett, 1991)", "key": {"[1]": {"species": "Rattus norvegicus", "assay": "Tested for the antagonistic activity against serotonin-induced contractions in rat aorta ring strip of endothelium", "assay_type": "functional, organism-based", "conditions": "read-out: pA2 (converted)"}, "[2]": {"molecular_target": "Serotonin 2 (5-HT2) receptor (Rattus norvegicus, UniProt P30994+P08909+P14842)", "assay": "Tested for the binding affinity towards 5-HT2 receptor measured by [3H]ketanserin binding to frontal cerebral cortex membranes of rat", "assay_type": "tissue-based, Membrane"}}, "data": [{"smiles": "O=C1CC(CN2CCC(C(=O)c3ccc(F)cc3)CC2)Cc2ccccc21", "note": "(stereo unspecified)", "values": [{"measurement": "Kb", "setting": "[1]", "result": 0.0138, "unit": "µM"}]}, {"smiles": "COc1ccccc1N1CCN(CC2CC(=O)c3ccccc3C2)CC1", "note": "(stereo unspecified)", "values": [{"measurement": "Kb", "setting": "[1]", "result": 0.513, "unit": "µM"}, {"measurement": "Log Ki", "setting": "[2]", "result": -6.48}]}, {"smiles": "O=C(CCCN1CCN(CC2CC(=O)c3ccccc3C2)CC1)c1ccc(F)cc1", "note": "(stereo unspecified)", "values": [{"measurement": "Log Ki", "setting": "[2]", "result": -7.25}]}, {"smiles": "O=C(CCCN1CCN(CC2CC(=O)c3ccc(F)cc3C2)CC1)c1ccc(F)cc1", "note": "(stereo unspecified)", "values": [{"measurement": "Kb", "setting": "[1]", "result": 0.0562, "unit": "µM"}, {"measurement": "Log Ki", "setting": "[2]", "result": -7.29}]}]}
